Test results reported in patent US20260265233A1, “BENZOTHIOPHENE DERIVATIVES AS RXFP1 AGONISTS” (BRISTOL-MYERS SQUIBB COMPANY, priority 2021, published 2026).

What follows are molecules tested against T1, human RXFP1 (Homo sapiens, UniProt Q9HBX9) (assay: hRXFP1 HEK293 cAMP assay (HTRF)). Details: HEK293 cells stably expressing human RXFP1; 30 min at rt; intracellular cAMP by HTRF.
T1 construct: expressed in transfected cells
T1 sequence (Q9HBX9 1-757): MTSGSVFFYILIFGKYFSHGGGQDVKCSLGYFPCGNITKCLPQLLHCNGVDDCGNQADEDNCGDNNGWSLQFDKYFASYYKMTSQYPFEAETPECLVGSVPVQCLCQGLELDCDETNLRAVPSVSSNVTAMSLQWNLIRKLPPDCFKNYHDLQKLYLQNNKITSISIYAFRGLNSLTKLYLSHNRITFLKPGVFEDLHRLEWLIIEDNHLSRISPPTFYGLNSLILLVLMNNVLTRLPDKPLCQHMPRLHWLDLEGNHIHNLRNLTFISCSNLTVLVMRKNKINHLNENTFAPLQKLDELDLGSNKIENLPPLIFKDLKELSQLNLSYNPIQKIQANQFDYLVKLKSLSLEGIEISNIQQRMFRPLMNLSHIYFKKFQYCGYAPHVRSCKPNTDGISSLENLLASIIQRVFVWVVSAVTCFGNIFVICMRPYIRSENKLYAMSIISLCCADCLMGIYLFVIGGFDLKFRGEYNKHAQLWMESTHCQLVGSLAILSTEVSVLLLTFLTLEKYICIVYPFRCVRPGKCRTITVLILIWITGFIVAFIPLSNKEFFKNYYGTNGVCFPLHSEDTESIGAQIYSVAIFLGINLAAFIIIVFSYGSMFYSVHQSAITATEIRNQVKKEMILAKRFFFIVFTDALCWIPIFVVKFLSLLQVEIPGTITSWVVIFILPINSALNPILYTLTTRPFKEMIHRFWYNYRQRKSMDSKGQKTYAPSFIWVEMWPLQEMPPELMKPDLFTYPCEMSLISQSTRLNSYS
Format: cell-based
Summary of the method: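 Agonism is measured as cAMP by HTRF, quantified from a standard curve via the 665/590 nm ratio and fitted with a four-parameter logistic equation. Compounds (0.010 nM to 50 μM final, 2% DMSO) were applied for 30 min at rt to human RXFP1-expressing HEK293 cells in assay buffer containing 0.5 mM IBMX.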

| Compound | EC50 |
| --- | --- |
| COc1ncc(N2CC3(COC3)C2)cc1C(=O)Nc1c(C(=O)Nc2ccc(F)c(C(F)(F)F)c2)sc2cc(C(F)(F)F)ccc12 [Example 233, N-(2-((4-fluoro-3-(trifluoromethyl)phenyl)carbamoyl)-6-(trifluoromethyl)benzo[b]thiophen-3-yl)-2-methoxy-5-(2-oxa-6-azaspiro[3.3]heptan-6-yl)nicotinamide] | 4.65 µM |
| COc1ccc(C(=O)N2CC(S(C)(=O)=O)C2)cc1C(=O)Nc1c(C(=O)Nc2ccc(F)c(C(F)(F)F)c2)sc2cc(C(F)(F)F)ccc12 [Example 178, N-(4-fluoro-3-(trifluoromethyl)phenyl)-3-(2-methoxy-5-(3-(methylsulfonyl)azetidine-1-carbonyl)benzamido)-6-(trifluoromethyl) benzo[b] thiophene-2-carboxamide] | 0.0052 µM |
| COc1cc(F)c(C(=O)N2CC(S(C)(=O)=O)C2)cc1C(=O)Nc1c(C(=O)Nc2ccc(F)c(C(F)(F)F)c2)sc2cc(C(F)(F)F)ccc12 [Example 28, 3-(4-fluoro-2-methoxy-5-(3-(methylsulfonyl)azetidine-1-carbonyl)benzamido)-N-(4-fluoro-3-(trifluoromethyl)phenyl)-6-(trifluoromethyl)benzo[b]thiophene-2-carboxamide] | 0.0487 µM |
| COc1ccc(-c2cc(C(=O)O)ccc2F)cc1C(=O)Nc1c(C(=O)Nc2ccc(F)c(C(F)(F)F)c2)sc2cc(Cl)ncc12 [Example 201, 3′-((6-chloro-2-((4-fluoro-3-(trifluoromethyl)phenyl)carbamoyl)thieno[3,2-c]pyridin-3-yl)carbamoyl)-6-fluoro-4′-methoxy-[1,1′-biphenyl]-3-carboxylic acid] | 0.32 µM |
| COc1ccc(C2CC2C(=O)NCC(C)(C)O)cc1C(=O)Nc1c(C(=O)Nc2ccc(F)c(C(F)(F)F)c2)sc2cc(C(F)(F)F)ccc12 (centres unmarked) [Example 170, N-[4-fluoro-3-(trifluoromethyl)phenyl]-3-(5-{2-[(2-hydroxy-2-methylpropyl)carbamoyl]cyclopropyl}-2-methoxy-benzamido)-6-(trifluoromethyl)-1-benzothiophene-2-carboxamide] | 1.1 µM |
| COc1cc(F)c(C(=O)NCC2(S(C)(=O)=O)CC2)cc1C(=O)Nc1c(C(=O)Nc2ccc(F)c(C(F)(F)F)c2)sc2cc(C(F)(F)F)ccc12 [Example 186, 4-fluoro-N1-(2-((4-fluoro-3-(trifluoromethyl)phenyl)carbamoyl)-6-(trifluoromethyl)benzo[b]thiophen-3-yl)-6-methoxy-N3-((1-(methylsulfonyl)cyclopropyl)methyl) isophthalamide] | 0.102 µM |
| COc1ccc(C(=O)N2CC3(COC3)C2)cc1C(=O)Nc1c(C(=O)Nc2ccc(F)c(C(F)(F)F)c2)sc2cc(C(F)(F)F)ccc12 [Example 181, N-(4-fluoro-3-(trifluoromethyl)phenyl)-3-(2-methoxy-5-(2-oxa-6-azaspiro[3.3]heptane-6-carbonyl)benzamido)-6-(trifluoromethyl) benzo[b] thiophene-2-carboxamide] | 0.544 µM |
| COc1ccc(C2CCCN(C(=O)CN(C)C)C2)cc1C(=O)Nc1c(C(=O)Nc2ccc(F)c(C(F)(F)F)c2)sc2cc(C(F)(F)F)ccc12 (single isomer, unassigned) [Example 87, 3-(5-(1-(dimethylglycyl)piperidin-3-yl)-2-methoxy-benzamido)-N-(4-fluoro-3-(trifluoromethyl)phenyl)-6-(trifluoromethyl) benzo[b] thiophene-2-carboxamide] | 1.16 µM |
| COc1ccc(C#CCO)cc1C(=O)Nc1c(C(=O)Nc2ccc(F)c(C(F)(F)F)c2)sc2cc(C3CC3)ncc12 [Example 202, 6-cyclopropyl-N-(4-fluoro-3-(trifluoromethyl)phenyl)-3-(5-(3-hydroxyprop-1-yn-1-yl)-2-methoxy-benzamido) thieno[3,2-c]pyridine-2-carboxamide] | 1.01 µM |
| COc1ccc(N2CCCC(C(=O)NC3COC3)C2)cc1C(=O)Nc1c(C(=O)Nc2ccc(F)c(C(F)(F)F)c2)sc2cc(C(F)(F)F)ccc12 (single isomer, unassigned) [Example 229, 1-(3-((2-((4-fluoro-3-(trifluoromethyl)phenyl)carbamoyl)-6-(trifluoromethyl)benzo [b]thiophen-3-yl)carbamoyl)-4-methoxyphenyl)-N-(oxetan-3-yl)piperidine-3-carboxamide] | 2.57 µM |
| COc1ccc(-c2cnn(C)c2C(=O)O)cc1C(=O)Nc1c(C(=O)Nc2ccc(F)c(C(F)(F)F)c2)sc2cc(C(F)(F)F)ccc12 [Example 212, 4-(3-((2-((4-fluoro-3-(trifluoromethyl)phenyl)carbamoyl)-6-(trifluoromethyl)benzo[b]thiophen-3-yl)carbamoyl)-4-methoxyphenyl)-1-methyl-1H-pyrazole-5-carboxylic acid] | 3.33 µM |
| COc1ccc(N2CCCC(C(=O)O)C2)cc1C(=O)Nc1c(C(=O)Nc2ccc(F)c(C(F)(F)F)c2)sc2cc(C(F)(F)F)ccc12 (single isomer, unassigned) [Example 4, 1-(3-((2-((4-fluoro-3-(trifluoromethyl)phenyl)carbamoyl)-6-(trifluoromethyl)benzo[b]thiophen-3-yl)carbamoyl)-4-methoxyphenyl) piperidine-3-carboxylic acid] | 0.375 µM |
| COc1ccc(-c2cc(CNS(C)(=O)=O)ccc2F)cc1C(=O)Nc1c(C(=O)Nc2ccc(F)c(C(F)(F)F)c2)sc2cc(C(F)(F)F)ccc12 [Example 17, N-(4-fluoro-3-(trifluoromethyl)phenyl)-3-(2′-fluoro-4-methoxy-5′-(methylsulfonamidomethyl)-[1,1′-biphenyl]-3-carboxamido)-6-(trifluoromethyl)benzo[b]thiophene-2-carboxamide] | 0.0103 µM |
| COc1ccc(C2=NOC3CC(NC(=O)C(C)(C)O)CC23)cc1C(=O)Nc1c(C(=O)Nc2ccc(F)c(C(F)(F)F)c2)sc2cc(C(F)(F)F)ccc12 (single isomer, unassigned) [Example 265, N-[4-fluoro-3-(trifluoromethyl)phenyl]-3-{5-[5-(2-hydroxy-2-methyl-propanamido)-3aH,4H,5H,6H, 6aH-cyclopenta[d] [1,2]oxazol-3-yl]-2-methoxy-benzamido}-6-(trifluoromethyl)-1-benzothiophene-2-carboxamide] | 1.14 µM |
| COc1ccc(C2CC3(CNC3)C2)cc1C(=O)Nc1c(C(=O)Nc2ccc(F)c(C(F)(F)F)c2)sc2cc(C(F)(F)F)ccc12 [Example 207, N-(4-fluoro-3-(trifluoromethyl)phenyl)-3-(2-methoxy-5-(2-azaspiro[3.3]heptan-6-yl)benzamido)-6-(trifluoromethyl) benzo[b] thiophene-2-carboxamide] | 1.46 µM |
| COc1ccc(C(=O)N(C)C)cc1C(=O)Nc1c(C(=O)Nc2ccc(F)c(C(F)(F)F)c2)sc2cc(C(F)(F)F)ccc12 [Example 220, N3-(2-((4-fluoro-3-(trifluoromethyl)phenyl)carbamoyl)-6-(trifluoromethyl)benzo[b]thiophen-3-yl)-4-methoxy-N1,N1-dimethyl-isophthalamide] | 2.53 µM |
| COc1ccc(-c2ccc(N3CCNCC3)nc2)cc1C(=O)Nc1c(C(=O)Nc2ccc(F)c(C(F)(F)F)c2)sc2cc(C(F)(F)F)ccc12 [Example 118, N-(4-fluoro-3-(trifluoromethyl)phenyl)-3-(2-methoxy-5-(6-(piperazin-1-yl)pyridin-3-yl)benzamido)-6-(trifluoromethyl) benzo[b] thiophene-2-carboxamide] | 0.255 µM |
